Assay results as given in publication PMC5318888, “SAMHD1 enhances nucleoside-analogue efficacy against HIV-1 in myeloid cells” (Scientific Reports, 2017).

Key:
HIV-1-GFP [1] = test: Anti-HIV-1 activity in THP-1 cells with or without Vpx transduction; assay type: cell-based
Experimental: (§1) Antiviral assays were further performed in monocytoid cells transduced with YFP-expressing VLPs containing WT SAMHD1, HD206-7AA or Vpx. Briefly, U937 cells (6 × 10^5 cells/mL) were transduced with WT SAMHD1-YFP or HD206-7AA-YFP VLPs by spinoculation at 800 × g for 90 min in the presence of 1 μg/mL polybrene. Similarly, THP-1 cells (6 × 10^5 cells/mL) were transduced with Vpx-YFP VLPs by spinoculation at 800 × g for 90 min in the presence of 1 μg/mL polybrene. Cells were incubated at 37 °C in 5% CO2 and after 72 h, PMA^+ cells (6 × 10^5 cells/mL) were treated with 100 nM PMA and PMA^− cells (7.5 × 10^4 cells/mL) were left untreated. Cells were then incubated at 37 °C in 5% CO2 for 48 h. Nucleoside analogues were added at increasing concentrations (0–200 μM; except CFB, 0–1.6 μM) and cells were further incubated for 48 h. PMA^− cells were then infected with HIV-1-GFP by spinoculation at 800 × g for 90 min in the presence of 1 μg/mL polybrene, PMA^+ cells were infected with HIV-1-GFP in the presence of 1 μg/mL polybrene only. Cells were incubated for 72 h at 37 °C in 5% CO2 and then analysed by two-colour flow cytometry using a Fortessa X20 analyser (BD Biosciences). Data were analysed using the FlowJo software suite.
(§2) The cytotoxic concentration of nucleoside analogue that inhibits cell viability by 50% (CC50) and the effective concentration of nucleoside analogue that inhibits infection of cells by 50% (EC50) were calculated for each independent experiment by non-linear regression using GraphPad Prism v6.00 for Windows (GraphPad Software, San Diego, CA). Non-ambiguous values were subjected to a replicate test to calculate confidence intervals of 95% (95% CI). CC50 and EC50 values were determined for at least two independent experiments for each nucleoside analogue and a selectivity index (SI) also calculated, (SI = CC50/EC50). EC50 values for each replicate were used to perform an unpaired two-tailed t-test to determine significant differences between U937 cells expressing SAMHD1 wt or HD206-7AA mutant and THP-1 cells expressing Vpx or untransduced cells. P values of <0.005 were considered statistically significant.

HIV-1-GFP [2] = test: microbe, parasite or virus in culture; assay type: cell-based
Experimental: (§3) H9 and Jurkat cells (6 × 10^5 cells/mL) were treated with increasing concentrations of nucleoside analogues (0–200 μM; except CFB, 0–1.6 μM) and incubated for 4 h at 37 °C in 5% CO2. Cells were then infected with HIV-1-GFP by spinoculation at 800 × g for 90 min in the presence of 1 μg/mL polybrene, and further incubated at 37 °C in 5% CO2 for 72 h. Undifferentiated U937 and THP-1 (PMA^−) cells (6 × 10^5 cells/mL) were treated with increasing concentrations of nucleoside analogues (0–200 μM; except CFB, 0–1.6 μM) and incubated at 37 °C in 5% CO2 for 48 h. Cells were then infected with HIV-1-GFP by spinoculation at 800 × g for 90 min in the presence of 1 μg/mL polybrene, and further incubated at 37 °C in 5% CO2 for 72 h. Non-dividing U937 and THP-1 (PMA^+) cells (6 × 10^5 cells/mL) were differentiated by addition of 100 nM PMA (PMA^+) for 48 h and treated with increasing concentrations of nucleoside analogues as described above. Cells were then infected with HIV-1-GFP in the presence of 1 μg/mL polybrene and further incubated at 37 °C in 5% CO2 for 72 h. The percentage of GFP^+cells was determined by one-colour flow cytometry using a Fortessa X20 analyser (BD Biosciences) and the data analysed using the FlowJo software suite.
(§4) Non-ambiguous values were subjected to a replicate test to calculate confidence intervals of 95% (95% CI). CC50 and EC50 values were determined for at least two independent experiments for each nucleoside analogue and a selectivity index (SI) also calculated, (SI = CC50/EC50). EC50 values for each replicate were used to perform an unpaired two-tailed t-test to determine significant differences between U937 cells expressing SAMHD1 wt or HD206-7AA mutant and THP-1 cells expressing Vpx or untransduced cells. P values of <0.005 were considered statistically significant.

[3] = Cytotoxicity, live cells by flow cytometry, H9 cells; assay type: cell-based; conditions: human
Experimental: (§5) H9, Jurkat and undifferentiated U937 and THP-1 (PMA^−) cells (6 × 10^5 cells/mL) were treated with increasing concentrations of nucleoside analogues (0–200 μM; except CFB, 0–1.6 μM) and incubated at 37 °C in 5% CO2 for 48 h. Medium was then replaced and cells were further incubated for 72 h. Non-dividing U937 and THP-1 (PMA^+) cells (6 × 10^5 cells/mL) were differentiated by addition of 100 nM phorbol-12-myristate-13-acetate (PMA^+) for 48 h and then treated with increasing concentrations of nucleoside analogues as described above. The percentage of live cells was determined by flow cytometry using Live/Dead fixable blue-fluorescent dyes (Invitrogen) and a Fortessa X20 analyser (BD Biosciences). Data were analysed using the FlowJo software suite.
as §2

HIV-1-GFP [4] = test: Anti-HIV-1 activity in U937 cells transduced with wt SAMHD1 or HD206-7AA mutant; assay type: cell-based
Experimental: as §1, §2

in vitro = assay type: cell-based; conditions: human
Experimental: as §5, §2

[5] = Cytotoxicity, live cells by flow cytometry, Jurkat cells; assay type: cell-based; conditions: human
Experimental: as §5, §2

THP-1 cells = test: Cytotoxicity, live cells by flow cytometry, THP-1 cells (PMA−/PMA+); assay type: cell-based; conditions: human, 48 h
Experimental: as §5, §2

[6] = as above; assay type: cell-based; conditions: human
Experimental: as §5, §2

[7] = Cytotoxicity, live cells by flow cytometry, U937 cells (PMA−/PMA+); assay type: cell-based; conditions: human
Experimental: as §5, §2

U937 cells = test: as above; assay type: cell-based; conditions: human, 48 h
Experimental: as §5, §2

SAMHD1 = target: T1, SAMHD1 (Homo sapiens, UniProt Q9Y3Z3); design: method as in PMID 25331707; conditions: previous in vitro assays; cited from earlier work
T1 construct: The final concentrations were 100 nM SAMHD1(115–626), 10 nM Ppx1; strep-tag; made in house

HIV-1-GFP [8] = test: microbe, parasite or virus in culture; assay type: cell-based; remark: listed apart in the source
Experimental: as §3, with “Cells” for “H9 and Jurkat cells (6 × 10^5 cells/mL) were treated with increasing concentrations of nucleoside analogues (0–200 μM; except CFB, 0–1.6 μM) and incubated for 4 h at 37 °C in 5% CO2. Cells”, “Undifferentiated U937 and THP-1 (PMA^−) cells (6 × 10^5 cells/mL) were treated with increasing concentrations of nucleoside analogues (0–200 μM; except CFB, 0–1.6 μM) and incubated at 37 °C in 5% CO2 for 48 h.” left out
as §4

[9] = Human immunodeficiency virus 1, THP-1, read-out: EC50 [95% CI], THP1 PMA+, Vpx+
[10] = Human immunodeficiency virus 1, THP-1, read-out: EC50 [95% CI], THP1 PMA+, Vpx−
[11] = Human immunodeficiency virus 1, THP-1, read-out: EC50 [95% CI], THP1 PMA−, Vpx+
[12] = Human immunodeficiency virus 1, THP-1, read-out: EC50 [95% CI], THP1 PMA−, Vpx−
[13] = Human immunodeficiency virus 1, THP-1, read-out: EC50 [95% CI], THP1 PMA+
[14] = Human immunodeficiency virus 1, THP-1, read-out: EC50 [95% CI], THP1 PMA−
[15] = Human immunodeficiency virus 1, U-937, read-out: EC50 [95% CI], U937 PMA+
[16] = Human immunodeficiency virus 1, U-937, read-out: EC50 [95% CI], U937 PMA−
[17] = Human immunodeficiency virus 1, U-937, read-out: EC50 [95% CI], U937 PMA+, HD206/7AA+ population
[18] = Human immunodeficiency virus 1, U-937, read-out: EC50 [95% CI], U937 PMA+, SAMHD1+ population
[19] = Human immunodeficiency virus 1, U-937, read-out: EC50 [95% CI], U937 PMA−, HD206/7AA+ population
[20] = Human immunodeficiency virus 1, U-937, read-out: EC50 [95% CI], U937 PMA−, SAMHD1+ population

T1 sequence (Q9Y3Z3 115-626): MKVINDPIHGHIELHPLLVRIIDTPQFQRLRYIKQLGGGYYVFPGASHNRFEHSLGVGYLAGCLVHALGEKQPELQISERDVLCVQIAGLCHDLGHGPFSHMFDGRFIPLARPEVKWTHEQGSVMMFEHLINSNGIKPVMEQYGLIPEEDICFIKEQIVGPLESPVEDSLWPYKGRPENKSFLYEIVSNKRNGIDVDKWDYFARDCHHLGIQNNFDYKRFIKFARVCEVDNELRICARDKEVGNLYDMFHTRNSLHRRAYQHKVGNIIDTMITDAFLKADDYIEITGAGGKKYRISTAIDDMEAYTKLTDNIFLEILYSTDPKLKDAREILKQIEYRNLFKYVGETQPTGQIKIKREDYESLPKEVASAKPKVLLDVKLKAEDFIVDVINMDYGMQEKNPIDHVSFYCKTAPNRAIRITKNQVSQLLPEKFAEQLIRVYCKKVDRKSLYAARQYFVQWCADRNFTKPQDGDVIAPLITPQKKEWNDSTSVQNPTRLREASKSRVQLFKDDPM

SMILES | EC50 (HIV-1-GFP [1]; [9]) [nM] | EC50 (HIV-1-GFP [1]; [10]) [nM] | EC50 (HIV-1-GFP [1]; [11]) [nM] | EC50 (HIV-1-GFP [1]; [12]) [nM] | EC50 (HIV-1-GFP [2]; [13]) [nM] | EC50 (HIV-1-GFP [2]; [14]) [nM] | EC50 (HIV-1-GFP [2]; [15]) [nM] | EC50 (HIV-1-GFP [2]; [16]) [nM] | CC50 at 48 h [3] [nM] | EC50 (HIV-1-GFP [4]; [17]) [nM] | EC50 (HIV-1-GFP [4]; [18]) [nM] | EC50 (HIV-1-GFP [4]; [19]) [nM] | EC50 (HIV-1-GFP [4]; [20]) [nM] | CC50 at 48 h (in vitro) [nM] | CC50 at 48 h [5] [nM] | CC50 (THP-1 cells) [nM] | CC50 (U937 cells) [nM] | hydrolysis by SAMHD1 (substrate) (SAMHD1) | Fold (EC50 Vpx+ vs Vpx−) (HIV-1-GFP [1]; THP1 PMA+) [fold] | Fold (EC50 Vpx+ vs Vpx−) (HIV-1-GFP [1]; THP1 PMA−) [fold] | further results
O=c1[nH]cnc2c1ncn2[C@H]1CC[C@@H](CO)O1 [ddI, 2′,3′-dideoxyinosine] | 4340 | 79 | 2730 | 1040 | 93 | 2030 | 2450 | 45800 | > 200000 | 8790 | 109 | 55100 | 23700 | > 200000 | > 200000 | > 200000 | > 200000 |  |  |  | CC50 at 48 h ([6]; CC50): > 200000 nM; CC50 at 48 h ([7]; CC50): > 200000 nM
Nc1nc(Cl)nc2c1ncn2[C@@H]1O[C@H](COP(=O)(O)OP(=O)(O)OP(=O)(O)O)[C@@H](O)[C@@H]1F [CFB-TP, Clofarabine triphosphate] |  |  |  |  |  |  |  |  |  |  |  |  |  |  |  |  |  | substrate hydrolysed by SAMHD1 at a rate comparable to natural dNTP substrates |  |  | 
Nc1nc(NC2CC2)c2ncn([C@H]3C=C[C@@H](CO)C3)c2n1 [ABC] | 7050 | 38 | 622 | 459 | 31 | 493 | 7470 | 14100 | > 200000 | 7060 | 173 | 22100 | 17500 | > 200000 | > 200000 | > 200000 | > 200000 |  | 187 | 1 | fold increase of anti-HIV-1 activity in PMA+ over PMA− cells (HIV-1-GFP [2]; THP-1): 16 fold; SI, selectivity index CC50/EC50 (HIV-1-GFP [2]; THP-1 PMA+): > 6452; SI, selectivity index CC50/EC50 (HIV-1-GFP [2]; THP-1 PMA−): > 406; SI, selectivity index CC50/EC50 (HIV-1-GFP [2]; U937 PMA+): > 27; SI, selectivity index CC50/EC50 (HIV-1-GFP [2]; U937 PMA−): > 14; Fold (EC50 HD206/7AA vs SAMHD1) (HIV-1-GFP [4]; U937 PMA+): 41 fold; Fold (EC50 HD206/7AA vs SAMHD1) (HIV-1-GFP [4]; U937 PMA−): 1 fold; CC50 at 48 h [6]: > 200000 nM; CC50 at 48 h [7]: > 200000 nM
Nc1nc(Cl)nc2c1ncn2[C@@H]1O[C@H](CO)[C@@H](O)[C@@H]1F [CFB, 2-chloro-9-(2′-Deoxy-2′-fluoro-beta-D-arabinofuranosyl)adenine] | 12 | 3 | > 1600 | 340 | 3 | 132 | 37 | 119 | 31 | 29 | 1.3 | 108 | 138 |  | 49 |  |  |  | 4 | >5 | fold increase of anti-HIV-1 activity in PMA+ over PMA− cells (HIV-1-GFP [2]; THP-1): 44 fold; SI, selectivity index CC50/EC50 (HIV-1-GFP [2]; THP-1 PMA+): > 533; SI, selectivity index CC50/EC50 (HIV-1-GFP [2]; THP-1 PMA−): < 1; fold increase of anti-HIV-1 activity in PMA+ over PMA− cells (HIV-1-GFP [2]; U937): 3 fold; SI, selectivity index CC50/EC50 (HIV-1-GFP [2]; U937 PMA+): > 43; SI, selectivity index CC50/EC50 (HIV-1-GFP [2]; U937 PMA−): < 1; Fold (EC50 HD206/7AA vs SAMHD1) (HIV-1-GFP [4]; U937 PMA+): 22 fold; Fold (EC50 HD206/7AA vs SAMHD1) (HIV-1-GFP [4]; U937 PMA−): 1 fold; SI, selectivity index CC50/EC50 (HIV-1-GFP [8]; H9 cells): < 1; EC50 (HIV-1-GFP [8]; Human immunodeficiency virus 1, H9, read-out: EC50 anti-HIV-1, H9 cells): 94 nM; EC50 (HIV-1-GFP [8]; Human immunodeficiency virus 1, Jurkat, read-out: EC50 anti-HIV-1, Jurkat cells): 663 nM; SI, selectivity index CC50/EC50 (HIV-1-GFP [8]; Jurkat cells): < 1
Nc1nc(O)c2ncn(COC(CO)COP(=O)(O)OP(=O)(O)OP(=O)(O)O)c2n1 (centres unmarked) [GCV-TP, Ganciclovir triphosphate] |  |  |  |  |  |  |  |  |  |  |  |  |  |  |  |  |  | non-hydrolysable |  |  | allosteric activation of SAMHD1 (SAMHD1): displayed no activation of SAMHD1
Nc1nc2c(ncn2COCCOP(=O)(O)OP(=O)(O)OP(=O)(O)O)c(=O)[nH]1 [ACV-TP, Aciclovir triphosphate] |  |  |  |  |  |  |  |  |  |  |  |  |  |  |  |  |  | non-hydrolysable |  |  | allosteric activation of SAMHD1 (SAMHD1): allosteric activator of SAMHD1 with comparable efficiency to GTP
